These results are taken from ChEMBL document CHEMBL4483862, “Open-source discovery of chemical leads for next-generation chemoprotective antimalarials” (2018).

pIC50: −log10 of the molar value. A value given as a limit tells only on which side of the number the result lay.

The test deals with Plasmodium berghei. Nature of the test: Luciferase/luciferin-expressing antifolate-resistant parasites were used to infect a culture of HepG2 cells that were pre-incubated with compounds. Infected hepatocytes emit light due to the luciferase reaction. Assay results are presented as the percent inhibition of light emission compared to control. […]. Format: functional. The conditions noted are these: sporozoite; for IC90: read-out: LUCIFERASE INFECTION ASSAY - IC90.

The mark [1] stands for this setting: read-out: LUCIFERASE INFECTION ASSAY - IC50.

For `Clc1ccc(-c2cnc3cnc(-c4cnn(Cc5ccccc5)c4)cn23)cc1`, the IC90 was determined as 3.3 µM. The pIC50 (FFLUC_HILL_SLOPE 15.7, FFLUC_R_SQUARED 0.271, HEPG2TOX_HILL_SLOPE 2.48, HEPG2TOX_R_SQUARED 0.0283, PBLUC_HILL_SLOPE 11.5, PBLUC_R_SQUARED 0.641, read-out: LUCIFERASE INFECTION ASSAY - IC50) was 5.56.

In the case of `O=C1C(=C2NC=C(c3ccc(Cl)cc3)O2)Sc2ncccc21`, the IC90 was 1.69 µM. For the same compound, the pIC50 (HEPG2TOX_HILL_SLOPE 1.16, HEPG2TOX_R_SQUARED 0.581, PBLUC_HILL_SLOPE 117, PBLUC_R_SQUARED 0.316, read-out: LUCIFERASE INFECTION ASSAY - IC50) was 5.78.

With `CC(=O)Nc1ccc2c(COC(=O)C(CC(C)C)NC(=O)c3ccc(Cl)cc3)cc(=O)oc2c1` (stereo not given), the IC90 is greater than 10 µM. For the same compound, the pIC50 (FFLUC_HILL_SLOPE 0.303, FFLUC_R_SQUARED 0.675, read-out: LUCIFERASE INFECTION ASSAY - IC50) is less than 5.00.

For `CC(C)c1ccc(NC(=O)C2=CN3CCN(Cc4ccc(F)cc4)C(=O)N=C3O2)cc1`, the IC90 is greater than 10 µM. For the same compound, under setting [1], the pIC50 is less than 5.00.

Take `CCc1nc(N2CCN(C(=O)c3ccco3)CC2)c2ccc(Cl)cc2n1`: the IC90 was greater than 8.9 µM. For the same compound, the pIC50 (PBLUC_HILL_SLOPE 3.74, PBLUC_R_SQUARED 0.373, read-out: LUCIFERASE INFECTION ASSAY - IC50) was 5.16.

Regarding `Cc1cc2oc(=O)cc(COC(=O)c3cccc(S(=O)(=O)N(Cc4ccccc4)c4cccc(C(F)(F)F)c4)c3)c2cc1C(C)C`, the IC90 was greater than 10 µM. Besides, under setting [1], the pIC50 is less than 5.00.

Take `O=C(Nc1ccc(OC(F)(F)F)cc1)Nc1ccc2nc(-c3ccc(F)c(Cl)c3)nn2c1`: the IC90 is greater than 10 µM. For the same compound, under “PBLUC_HILL_SLOPE 3.06, PBLUC_R_SQUARED 0.207, read-out: LUCIFERASE INFECTION ASSAY - IC50”, the pIC50 was 5.14.

With `O=[N+]([O-])c1ccc(Oc2cncc(Cl)c2)c(-c2nnc(-c3ccc(C(F)(F)F)cc3)o2)c1`, the IC90 was greater than 7.13 µM. In addition, the pIC50 (HEPG2TOX_HILL_SLOPE 2.45, HEPG2TOX_R_SQUARED 0.932, PBLUC_HILL_SLOPE 14.3, PBLUC_R_SQUARED 0.511, read-out: LUCIFERASE INFECTION ASSAY - IC50) was 5.18.

`O=C(Nc1ccccc1)Nc1nc2ccc([N+](=O)[O-])cc2s1`: the IC90 is 7.31 µM. For the same compound, the pIC50 (HEPG2TOX_HILL_SLOPE 6.06, HEPG2TOX_R_SQUARED 0.204, PBLUC_HILL_SLOPE 4.24, PBLUC_R_SQUARED 0.473, read-out: LUCIFERASE INFECTION ASSAY - IC50) is 5.36.

On to `COc1ccc(CCN(C)c2ccc(S(=O)(=O)N(C(C)C)C(C)C)cn2)cc1OC`, for which the IC90 was greater than 10 µM. Under “PBLUC_HILL_SLOPE 2.91, PBLUC_R_SQUARED 0.109, read-out: LUCIFERASE INFECTION ASSAY - IC50”, the negative-log IC50 (pIC50) was 5.23.

Regarding `O=C(COc1ccc(F)cc1)Nc1ccc2c(=O)c3cccc(Cl)c3oc2c1`, the IC90 is greater than 8.3 µM. Under setting [1], the negative-log IC50 (pIC50) is less than 5.08.

Consider `Cc1ccc(NNC(=O)c2cnc3c(c2)c(C)nn3C)cc1Cl`, for which the IC90 is greater than 10 µM. Besides, where the note is “PBLUC_HILL_SLOPE 2.54, PBLUC_R_SQUARED 0.422, read-out: LUCIFERASE INFECTION ASSAY - IC50”, the pIC50 was 5.15.

`Cc1ccc(OC(=O)c2ccc(C(C)(C)C)cc2)c(NC(=O)c2ccc(C(C)(C)C)cc2)c1`: the IC90 was greater than 7.44 µM. Further, the pIC50 (FFLUC_HILL_SLOPE 1.14, FFLUC_R_SQUARED 0.535, PBLUC_HILL_SLOPE 1.18, PBLUC_R_SQUARED 0.716, read-out: LUCIFERASE INFECTION ASSAY - IC50) was 5.84.

Turning to `CCOc1cc(/C=C2\CN(CC)C/C(=C\c3ccc(O)c(OCC)c3)C2=O)ccc1O`, the IC90 came to 4.59 µM. For the same compound, the pIC50 (HEPG2TOX_HILL_SLOPE 12.4, HEPG2TOX_R_SQUARED 0.875, PBLUC_HILL_SLOPE 8.96, PBLUC_R_SQUARED 0.775, read-out: LUCIFERASE INFECTION ASSAY - IC50) was 5.44.

Turning to `CC(C)(C)c1csc(-c2ccc(/C=N/OC(=O)Nc3ccc(Cl)cc3)cc2)n1`, the IC90 is greater than 7.97 µM. Moreover, the pIC50 under setting [1] is less than 5.10.

Consider `Nc1cccc(-c2ccnc3n[nH]c(-c4cccc(Cl)c4)c23)c1`, for which the concentration for an effect of 90% (IC90) stood at 7.12 µM. Moreover, the pIC50 (HEPG2TOX_HILL_SLOPE 22.1, HEPG2TOX_R_SQUARED 0.878, PBLUC_HILL_SLOPE 1.59, PBLUC_R_SQUARED 0.529, read-out: LUCIFERASE INFECTION ASSAY - IC50) is 5.75.

For the compound `CCOc1c(Br)cc(/C=C2/C(=O)N(C)c3ccccc32)cc1OC`, the IC90 is greater than 10 µM. Also, the negative-log IC50 (pIC50) (HEPG2TOX_HILL_SLOPE 13, HEPG2TOX_R_SQUARED 0.388, read-out: LUCIFERASE INFECTION ASSAY - IC50) is less than 5.00.

For the compound `Cc1ccc(C(=O)Nc2nc(-c3ccccn3)cs2)cc1S(=O)(=O)N1CCOCC1`, the IC90 worked out at 9.81 µM. For the same compound, for the setting “HEPG2TOX_HILL_SLOPE 1.67, HEPG2TOX_R_SQUARED 0.851, PBLUC_HILL_SLOPE 9.71, PBLUC_R_SQUARED 0.0304, read-out: LUCIFERASE INFECTION ASSAY - IC50”, the pIC50 was 5.11.

On to `CCN(CC)c1ccc(/C=C2\CCc3cnn(-c4nc(-c5ccccc5)cs4)c32)cc1`, for which the IC90 was greater than 10 µM. The negative logarithm of the IC50 (pIC50) (FFLUC_HILL_SLOPE 3.85, FFLUC_R_SQUARED 0.639, read-out: LUCIFERASE INFECTION ASSAY - IC50) is less than 5.00.

Consider `CC(C)(C)CNC(=S)N/N=C/c1cc(Cl)cc(Cl)c1O`, for which the IC90 is greater than 9.87 µM. For the same compound, the pIC50 (HEPG2TOX_HILL_SLOPE 2.41, HEPG2TOX_R_SQUARED 0.728, PBLUC_HILL_SLOPE 9.45, PBLUC_R_SQUARED 0.267, read-out: LUCIFERASE INFECTION ASSAY - IC50) was 5.04.

Turning to `O=c1cc(CN2CCCc3ccc(C(F)(F)F)cc32)nc2sccn12`, the IC90 was greater than 10 µM. For the same compound, the pIC50 under setting [1] was less than 5.00.

In the case of `NC(=O)c1c(NC(=O)N2CCC(Cc3ccccc3)CC2)sc2c1CCC2`, the IC90 was greater than 8.6 µM. The pIC50 (HEPG2TOX_HILL_SLOPE 1.79, HEPG2TOX_R_SQUARED 0.702, PBLUC_HILL_SLOPE 1.44, PBLUC_R_SQUARED 0.101, read-out: LUCIFERASE INFECTION ASSAY - IC50) is 5.45.

In the case of `N#CCOc1cc(Cl)cc(Cl)c1`, the concentration for an effect of 90% (IC90) was greater than 16.3 µM. Under “FFLUC_HILL_SLOPE 1.89, FFLUC_R_SQUARED 0.0257, read-out: LUCIFERASE INFECTION ASSAY - IC50”, the pIC50 was less than 4.79.

For `COc1ccc(-c2csc3ncnc(Sc4nnc(-c5cccc(C)c5)n4CC(N)=O)c23)cc1`, the 90% effect concentration (IC90) turned out to be 2.23 µM. Further, for the setting “HEPG2TOX_HILL_SLOPE 1.67, 2.83, HEPG2TOX_R_SQUARED 0.956, 0.971, PBLUC_HILL_SLOPE 8.88, 0.995, PBLUC_R_SQUARED 0.771, 0.637, read-out: LUCIFERASE INFECTION ASSAY - IC50”, the pIC50 was 6.15.

`COc1ccccc1C(=O)/C=C/c1ccc(N2CCCCC2)c([N+](=O)[O-])c1`: the IC90 was greater than 10 µM. The pIC50 (HEPG2TOX_HILL_SLOPE 11.8, HEPG2TOX_R_SQUARED 0.223, read-out: LUCIFERASE INFECTION ASSAY - IC50) was less than 5.00.

With `Cc1cc(C)n(-c2ccc(NC(=O)C3(c4ccccc4)CC3)cn2)n1`, the IC90 was found to be 0.834 µM. Moreover, the pIC50 (PBLUC_HILL_SLOPE 3.93, PBLUC_R_SQUARED 0.515, read-out: LUCIFERASE INFECTION ASSAY - IC50) was 6.32.

Regarding `Clc1cccc(Sc2ccc(-c3ccccn3)s2)c1`, the IC90 is greater than 10.9 µM. Besides, under setting [1], the pIC50 was less than 4.96.

For the compound `O=S(=O)(c1ccccc1)c1nc(Nc2ccc(F)cc2F)sc1Cl`, the IC90 is greater than 10 µM. Moreover, where the note is “HEPG2TOX_HILL_SLOPE 0.283, HEPG2TOX_R_SQUARED 0.886, PBLUC_HILL_SLOPE 3.77, PBLUC_R_SQUARED 0.219, read-out: LUCIFERASE INFECTION ASSAY - IC50”, the pIC50 is 5.14.

On to `O=C(Nc1cccc(F)c1)Nc1ccc2nc(Cc3ccccc3)nn2c1`, for which the 90% effect concentration (IC90) was found to be 1.35 µM. Moreover, where the note is “HEPG2TOX_HILL_SLOPE 1.95, HEPG2TOX_R_SQUARED 0.988, PBLUC_HILL_SLOPE 12.2, PBLUC_R_SQUARED 0.455, read-out: LUCIFERASE INFECTION ASSAY - IC50”, the pIC50 is 5.95.

For `Cc1cccc(-n2c(SC(C)C(N)=O)nc3ccccc3c2=O)n1` (stereo not given), the IC90 is greater than 10 µM. Besides, under setting [1], the pIC50 is less than 5.00.

Turning to `N#CC1=C2Sc3ccccc3N2C(O)(C(F)(F)F)C(C(=O)C(F)(F)F)=C1` (stereo not given), the concentration for an effect of 90% (IC90) was determined as 4.76 µM. For the same compound, the pIC50 (PBLUC_HILL_SLOPE 9.79, 8.06, PBLUC_R_SQUARED 0.178, 0.335, read-out: LUCIFERASE INFECTION ASSAY - IC50) was 5.43.

With `COc1ccccc1N1CCN(S(=O)(=O)c2cccc(Cl)c2)CC1`, the concentration for an effect of 90% (IC90) was greater than 9 µM. The pIC50 under setting [1] was less than 5.05.

With `O=c1cc(C(F)(F)F)[nH]n1-c1ccc(OC(F)(F)F)cc1`, the IC90 was greater than 10.6 µM. The pIC50 (HEPG2TOX_HILL_SLOPE 7.72, HEPG2TOX_R_SQUARED 0.792, PBLUC_HILL_SLOPE 12.3, PBLUC_R_SQUARED 0.186, read-out: LUCIFERASE INFECTION ASSAY - IC50) was 5.01.

Turning to `Clc1ccc(-c2csc3ncnc(Sc4nnc(N5CCOCC5)n4C4CC4)c23)cc1`, the IC90 is greater than 10 µM. In addition, the pIC50 (PBLUC_HILL_SLOPE 1.69, PBLUC_R_SQUARED 0.173, read-out: LUCIFERASE INFECTION ASSAY - IC50) was 5.15.

In the case of `OCc1ccc(-c2cnc3cnc(-c4cccc(Cl)c4)cn23)cc1`, the concentration for an effect of 90% (IC90) was greater than 9.83 µM. Further, the pIC50 (PBLUC_HILL_SLOPE 16, PBLUC_R_SQUARED 0.272, read-out: LUCIFERASE INFECTION ASSAY - IC50) is 5.02.
